In the CheMixHub drug solubility set:

Assay: xn = mol fraction of the nth substance listed, in the solute-free solvent

Clc1ncnc2[nH]ccc12 + C1CCOC1 + CC#N
solubility (g/100 g solution)
Conditions | 278.15 K | 283.15 K | 288.15 K | 293.15 K | 298.15 K | 303.15 K | 308.15 K | 313.15 K | 318.15 K | 323.15 K
x2 = 0.1144 | 1.32 | 1.6 | 1.93 | 2.31 | 2.76 | 3.28 | 3.83 | 4.5 | 5.24 | 6.02
x2 = 0.2441 | 2.03 | 2.39 | 2.84 | 3.33 | 3.92 | 4.49 | 5.24 | 5.97 | 6.81 | 7.73
x2 = 0.3923 | 3.17 | 3.65 | 4.24 | 4.84 | 5.58 | 6.34 | 7.13 | 8.04 | 9.06 | 10.1
x2 = 0.4748 | 3.9 | 4.49 | 5.13 | 5.83 | 6.63 | 7.45 | 8.34 | 9.34 | 10.4 | 11.5
x2 = 0.5636 | 5.02 | 5.61 | 6.32 | 7.09 | 8 | 8.89 | 9.89 | 10.9 | 12 | 13.2
x2 = 0.7635 | 7.14 | 8 | 8.83 | 9.79 | 10.7 | 11.8 | 12.8 | 14 | 15.2 | 16.4

Clc1ncnc2[nH]ccc12 + C1CCOC1 + CC(C)O
solubility (g/100 g solution)
Conditions | 278.15 K | 283.15 K | 288.15 K | 293.15 K | 298.15 K | 303.15 K | 308.15 K | 313.15 K | 318.15 K | 323.15 K
x2 = 0.1584 | 3.68 | 4.2 | 4.8 | 5.46 | 6.15 | 6.89 | 7.74 | 8.58 | 9.6 | 10.6
x2 = 0.32 | 5.12 | 5.79 | 6.49 | 7.25 | 8.17 | 9.04 | 9.96 | 10.9 | 12 | 13.2
x2 = 0.4848 | 6.63 | 7.38 | 8.22 | 9.03 | 9.99 | 10.9 | 12 | 13.1 | 14.2 | 15.3
x2 = 0.5685 | 7.34 | 8.12 | 8.96 | 9.81 | 10.8 | 11.9 | 12.8 | 14 | 15.1 | 16.3
x2 = 0.6531 | 7.99 | 8.83 | 9.69 | 10.6 | 11.6 | 12.6 | 13.7 | 14.7 | 15.8 | 17
x2 = 0.8247 | 8.95 | 9.82 | 10.7 | 11.6 | 12.6 | 13.5 | 14.6 | 15.7 | 16.7 | 17.9

Clc1ncnc2[nH]ccc12 + C1CCOC1 + CCOC(C)=O
solubility (g/100 g solution)
Conditions | 278.15 K | 283.15 K | 288.15 K | 293.15 K | 298.15 K | 303.15 K | 308.15 K | 313.15 K | 318.15 K | 323.15 K
x2 = 0.1937 | 2.62 | 2.95 | 3.32 | 3.75 | 4.21 | 4.72 | 5.25 | 5.79 | 6.4 | 7.07
x2 = 0.3753 | 3.46 | 3.9 | 4.38 | 4.87 | 5.45 | 6.03 | 6.66 | 7.34 | 8.06 | 8.83
x2 = 0.5458 | 4.65 | 5.2 | 5.79 | 6.4 | 7.13 | 7.83 | 8.57 | 9.41 | 10.2 | 11.2
x2 = 0.6272 | 5.34 | 5.93 | 6.58 | 7.23 | 8 | 8.79 | 9.64 | 10.5 | 11.4 | 12.4
x2 = 0.7061 | 5.97 | 6.66 | 7.32 | 8.1 | 8.9 | 9.77 | 10.6 | 11.5 | 12.6 | 13.5
x2 = 0.8573 | 7.35 | 8.08 | 8.82 | 9.69 | 10.6 | 11.6 | 12.5 | 13.5 | 14.6 | 15.7

Clc1ncnc2[nH]ccc12 + C1CCOC1 + CO
solubility (g/100 g solution)
Conditions | 278.15 K | 283.15 K | 288.15 K | 293.15 K | 298.15 K | 303.15 K | 308.15 K | 313.15 K | 318.15 K | 323.15 K
x2 = 0.09054 | 4.18 | 4.85 | 5.59 | 6.45 | 7.41 | 8.85 | 9.6 | 10.8 | 12.2 | 13.6
x2 = 0.1993 | 6.2 | 7.11 | 8.13 | 9.15 | 10.3 | 11.6 | 12.9 | 14.3 | 15.9 | 17.4
x2 = 0.3323 | 8.17 | 9.22 | 10.3 | 11.4 | 12.7 | 14.1 | 15.4 | 17 | 18.5 | 20.2
x2 = 0.4107 | 8.75 | 9.76 | 10.9 | 12 | 13.4 | 14.6 | 16.1 | 17.5 | 19.1 | 20.7
x2 = 0.4989 | 9.02 | 10 | 11.1 | 12.2 | 13.5 | 14.8 | 16.1 | 17.5 | 18.9 | 20.5
x2 = 0.7134 | 8.95 | 9.87 | 10.8 | 11.8 | 13 | 14 | 15.2 | 16.5 | 17.7 | 19.1

CN1CCN(C(=O)OC2c3nccnc3C(=O)N2c2ccc(Cl)cn2)CC1 (centres undefined) + C1CCOC1 + O
solubility (g/100 g solution)
Conditions | x2 = 0.3 | x2 = 0.4 | x2 = 0.5 | x2 = 0.6 | x2 = 0.7 | x2 = 0.8 | x2 = 0.9
288.15 K | 0.41 | 0.79 | 1.33 | 2.06 | 2.8 | 3.32 | 3.83
298.15 K | 0.626 | 1.14 | 1.83 | 2.66 | 3.57 | 4.41 | 4.87
308.15 K | 0.91 | 1.54 | 2.43 | 3.54 | 4.53 | 5.71 | 6.18
318.15 K | 1.13 | 2 | 3.21 | 4.68 | 6.19 | 7.53 | 8.07
328.15 K | 1.47 | 2.59 | 4.15 | 6.16 | 8.4 | 9.55 | 9.98

Cc1ccc(Nc2nccc(N(C)c3ccc4c(C)n(C)nc4c3)n2)cc1S(N)(=O)=O + CC#N + CC(C)O
solubility (g/100 g solution)
Conditions | 288.15 K | 293.15 K | 298.15 K | 303.15 K | 308.15 K | 313.15 K | 318.15 K | 323.15 K | 328.15 K
x2 = 0.2679 | 0.00834 | 0.0123 | 0.0162 | 0.0208 | 0.0257 | 0.0311 | 0.0374 | 0.0456 | 0.0557
x2 = 0.4939 | 0.0116 | 0.0198 | 0.0273 | 0.0362 | 0.0457 | 0.0552 | 0.0651 | 0.0758 | 0.0876
x2 = 0.6871 | 0.0161 | 0.0249 | 0.0344 | 0.0445 | 0.0553 | 0.0662 | 0.079 | 0.0943 | 0.113
x2 = 0.8541 | 0.0119 | 0.0172 | 0.0243 | 0.0311 | 0.0393 | 0.0478 | 0.0563 | 0.0666 | 0.0803

O=C1NS(=O)(=O)c2ccccc21 + CC#N + CC(C)O
solubility (g/100 g solution)
Conditions | x2 = 0.0998 | x2 = 0.2002 | x2 = 0.2999 | x2 = 0.3996 | x2 = 0.5004 | x2 = 0.5997 | x2 = 0.7001 | x2 = 0.7997 | x2 = 0.8996
293.15 K | 4.08 | 5.79 | 7.19 | 8.27 | 8.87 | 8.79 | 8.19 | 7 | 5.08
298.15 K | 4.75 | 6.64 | 8.05 | 9.07 | 9.79 | 9.66 | 8.97 | 7.68 | 5.75
303.15 K | 5.49 | 7.5 | 9.3 | 10.4 | 11.2 | 10.8 | 10.1 | 8.77 | 6.38
308.15 K | 6.33 | 8.56 | 10.5 | 11.7 | 12.3 | 12.3 | 11.5 | 9.73 | 7.32
313.15 K | 7.35 | 10 | 12.1 | 13.4 | 14.2 | 14.1 | 13.1 | 11.2 | 8.37
318.15 K | 8.79 | 11.8 | 14.1 | 15.5 | 16.3 | 16.2 | 15.1 | 12.9 | 9.59
323.15 K | 10.3 | 13.5 | 16 | 17.6 | 18.3 | 18 | 16.8 | 14.3 | 10.7

Cc1ccc(Nc2nccc(N(C)c3ccc4c(C)n(C)nc4c3)n2)cc1S(N)(=O)=O + CC#N + CCCCO
solubility (g/100 g solution)
Conditions | 288.15 K | 293.15 K | 298.15 K | 303.15 K | 308.15 K | 313.15 K | 318.15 K | 323.15 K | 328.15 K
x2 = 0.311 | 0.00876 | 0.015 | 0.0216 | 0.0293 | 0.0367 | 0.0447 | 0.0534 | 0.0638 | 0.0746
x2 = 0.5462 | 0.0159 | 0.0251 | 0.0355 | 0.0464 | 0.0592 | 0.0722 | 0.0852 | 0.1 | 0.117
x2 = 0.7303 | 0.0138 | 0.0237 | 0.0349 | 0.047 | 0.0614 | 0.0758 | 0.0904 | 0.107 | 0.126
x2 = 0.8784 | 0.0109 | 0.0167 | 0.0237 | 0.0316 | 0.0398 | 0.05 | 0.0607 | 0.0728 | 0.0871

Cc1ccc(Nc2nccc(N(C)c3ccc4c(C)n(C)nc4c3)n2)cc1S(N)(=O)=O + CC#N + CCCO
solubility (g/100 g solution)
Conditions | 288.15 K | 293.15 K | 298.15 K | 303.15 K | 308.15 K | 313.15 K | 318.15 K | 323.15 K | 328.15 K
x2 = 0.2679 | 0.0118 | 0.0186 | 0.0265 | 0.0356 | 0.0456 | 0.0555 | 0.066 | 0.0779 | 0.0924
x2 = 0.4939 | 0.0196 | 0.031 | 0.0432 | 0.057 | 0.0716 | 0.0875 | 0.104 | 0.123 | 0.145
x2 = 0.6871 | 0.0177 | 0.0276 | 0.0399 | 0.0523 | 0.0687 | 0.0849 | 0.102 | 0.12 | 0.143
x2 = 0.8541 | 0.0117 | 0.0175 | 0.0245 | 0.0326 | 0.0408 | 0.0514 | 0.0625 | 0.075 | 0.0903

O=C1NS(=O)(=O)c2ccccc21 + CC#N + CCO
solubility (g/100 g solution)
Conditions | x2 = 0.0999 | x2 = 0.2002 | x2 = 0.2997 | x2 = 0.3998 | x2 = 0.5002 | x2 = 0.5999 | x2 = 0.7001 | x2 = 0.7999 | x2 = 0.8999
293.15 K | 5.33 | 7.27 | 8.67 | 9.52 | 9.7 | 9.58 | 8.96 | 7.58 | 5.52
298.15 K | 5.91 | 7.97 | 9.45 | 10.3 | 10.7 | 10.6 | 9.85 | 8.34 | 6.08
303.15 K | 6.8 | 9.11 | 10.7 | 11.7 | 12.1 | 11.9 | 11.1 | 9.45 | 6.93
308.15 K | 7.49 | 9.96 | 11.7 | 12.7 | 13.5 | 13.2 | 12.3 | 10.5 | 7.63
313.15 K | 8.72 | 11.5 | 13.3 | 14.4 | 14.8 | 14.6 | 13.6 | 11.7 | 8.61
318.15 K | 10.1 | 13.2 | 15.3 | 16.5 | 16.8 | 16.7 | 15.4 | 13.3 | 9.87
323.15 K | 11.4 | 14.7 | 16.9 | 18.1 | 18.5 | 18.2 | 17 | 14.6 | 10.9
